# Reference: patent US20230416239A1, “COMPOUNDS AND METHODS FOR TREATING A CYTOKINE-MEDIATED DISEASE” (CONSERVATOIRE NATIONAL DES ARTS ET MÉTIERS, priority 2020, published 2023)
# What was measured:
# TNFα = TNFα (Homo sapiens, UniProt P01375); experiment: Immunoassay binding test, TNFa; details: compounds 100 to 0.78 μM; TNFα 10 ng/ml, receptor 100 ng/ml; read-out: BINDING TNF IC50
# Method: Microtiter plates (96 wells) are covered with 100 μl of receptor per well, and incubated overnight at 4° C. The following day, after 2 washes in PBS/Tween20, the plates are saturated with 150 μl of PBS/BSA 2% per well, for 2 h at 37° C. […] The cytokine is diluted in series (six concentrations) in a final volume of 120 μl per well. […] The different mixtures are incubated for 2 h at 37° C. 100 μl of each mixture are then transferred to the microtiter plate, respecting the plate plan previously defined and incubated overnight at 4° C. After three washes, 100 μl of biotinylated anti-cytokine secondary antibody are added to each well, then incubated for 2 h at 37° C. After three washes, 100 μl of Avidin-HRP (1/500th dilution) are added and incubated for 30 minutes at 37° C. […] The plates are then read with a spectrophotometer at 450 nm, measuring the optical density for each well.
# (§1) This binding test is carried out with different cytokines: TNFa, IL-4, IL-6 and IL-13. For IL-6, the incubation of molecules with the cytokine also requires the presence of IL-6Ra at a final concentration of 200 ng/ml.
# (§2) The final concentrations used for each of the cytokines are presented below: […]
# TNFa/TNFRI interaction = TNFa/TNFRI interaction (Homo sapiens, UniProt P01375); experiment: TNFa/TNFRI interaction displacement test; format: binding; details: for Displacement (%): compounds at 50 μM, human TNFRI 100 ng/ml; for Displacement EC50 TNFa in presence of compound: Difference: Compound EC50 minus SPD304 EC50;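 for Displacement EC50 TNFa in presence of compound: Difference: SPD304 reference at 20 µM final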
# Method: Microtiter plates (96 wells) are covered with 100 μl per well of human TNFRI, at a concentration of 100 ng/ml, then incubated overnight at 4° C. The following day, after two washes in PBS/Tween20, the plates are saturated with 150 μl of PBS/BSA 2% for 2 h at 37° C.
# 100 μl of each mixture are then transferred to the microtiter plate, respecting the established plate plan and incubated overnight at 4° C.
# After three washes, 100 μl of biotinylated anti-cytokine secondary antibody are added to each well and incubated for 2 h at 37° C. After three washes, 100 Avl Avidin-HRP (dilution 1/500th) are added and incubated for 30 minutes at 37° C. […] The plates are then read with a spectrophotometer at 450 nm, measuring the optical density (OD) for each well.
# IL-4 = biological target: T1, IL-4 (Homo sapiens, UniProt P05112); experiment: Immunoassay binding test, IL-4; details: for IC50: IL-4 400 ng/ml, receptor 100 ng/ml, read-out: BINDING IL4 IC50
# T1 sequence (P05112 25-153): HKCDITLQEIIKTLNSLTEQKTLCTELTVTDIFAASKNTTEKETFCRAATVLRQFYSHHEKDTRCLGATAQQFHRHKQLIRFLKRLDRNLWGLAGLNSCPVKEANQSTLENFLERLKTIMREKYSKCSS
# Method: (§3) Microtiter plates (96 wells) are covered with 100 μl of receptor per well, and incubated overnight at 4° C. The following day, after 2 washes in PBS/Tween20, the plates are saturated with 150 μl of PBS/BSA 2% per well, for 2 h at 37° C. Synthetic compounds are diluted in series (final concentrations: 100 to 0.78 μM) then a fixed amount of cytokine in PBS/BSA 1% is added to the compounds, in a final volume of 120 μl per well. […] The cytokine is diluted in series (six concentrations) in a final volume of 120 μl per well. The cytokine is used in the absence of small molecule as well as the range of SPD304 as positive controls and the absence of cytokine and synthetic molecule as negative control. The different mixtures are incubated for 2 h at 37° C. 100 μl of each mixture are then transferred to the microtiter plate, respecting the plate plan previously defined and incubated overnight at 4° C. After three washes, 100 μl of biotinylated anti-cytokine secondary antibody are added to each well, then incubated for 2 h at 37° C. After three washes, 100 μl of Avidin-HRP (1/500th dilution) are added and incubated for 30 minutes at 37° C. […] The plates are then read with a spectrophotometer at 450 nm, measuring the optical density for each well.
# as §1, §2
# IL-13 = IL-13 (Homo sapiens, UniProt P35225); experiment: Immunoassay binding test, IL-13; details: for IC50: IL-13 400 ng/ml, receptor 100 ng/ml, read-out: BINDING IL13 IC50
# Method: Microtiter plates (96 wells) are covered with 100 μl of receptor per well, and incubated overnight at 4° C. The following day, after 2 washes in PBS/Tween20, the plates are saturated with 150 μl of PBS/BSA 2% per well, for 2 h at 37° C. Synthetic compounds are diluted in series (final concentrations: 100 to 0.78 μM) then a fixed amount of cytokine in PBS/BSA 1% is added to the compounds, in a final volume of 120 μl per well. […] The cytokine is diluted in series (six concentrations) in a final volume of 120 μl per well. […] The different mixtures are incubated for 2 h at 37° C. 100 μl of each mixture are then transferred to the microtiter plate, respecting the plate plan previously defined and incubated overnight at 4° C. After three washes, 100 μl of biotinylated anti-cytokine secondary antibody are added to each well, then incubated for 2 h at 37° C. After three washes, 100 μl of Avidin-HRP (1/500th dilution) are added and incubated for 30 minutes at 37° C. […] The plates are then read with a spectrophotometer at 450 nm, measuring the optical density for each well.
# as §1, §2
# IL-6 = IL-6 (Homo sapiens, UniProt P05231); experiment: Immunoassay binding test, IL-6 (gp130 receptor, IL-6Ra present); details: IL-6Ra 200 ng/ml
# Method: as §3, §1, §2
# IL-13, sequence (P35225 25-146, species assumed): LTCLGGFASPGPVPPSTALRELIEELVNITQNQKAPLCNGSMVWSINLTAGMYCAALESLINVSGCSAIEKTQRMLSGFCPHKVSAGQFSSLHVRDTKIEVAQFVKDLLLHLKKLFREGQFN
# TNFa/TNFRI interaction, sequence (P01375 77-233 limits assumed): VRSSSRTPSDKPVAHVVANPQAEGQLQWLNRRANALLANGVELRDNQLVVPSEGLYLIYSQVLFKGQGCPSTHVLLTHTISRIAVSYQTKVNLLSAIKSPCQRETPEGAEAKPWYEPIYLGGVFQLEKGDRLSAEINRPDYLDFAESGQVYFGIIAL
# TNFα, sequence (P01375 77-233 limits assumed, species assumed): as the sequence (P01375 77-233 limits assumed) above
# IL-6, sequence (P05231 30-212, species assumed): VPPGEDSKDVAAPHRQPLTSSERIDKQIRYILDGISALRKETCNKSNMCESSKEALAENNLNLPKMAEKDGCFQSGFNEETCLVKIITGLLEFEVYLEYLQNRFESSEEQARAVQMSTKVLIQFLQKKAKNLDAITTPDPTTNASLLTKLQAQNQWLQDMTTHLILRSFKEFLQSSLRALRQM
SMILES,IC50 (TNFα) [µM],Displacement (%) (TNFa/TNFRI interaction),BINDING IL4 % Neutra at 100 μM (IL-4) [%],IC50 (IL-4) [µM],BINDING IL13 % Neutra at 100 μM (IL-13) [%],IC50 (IL-13) [µM],BINDING IL6 % Neutra at 100 μM (IL-6) [%],Displacement EC50 TNFa in presence of compound: Difference (TNFa/TNFRI interaction) [µg/mL]
"O=S(=O)(c1ccccc1)n1cc(CN(CCCCNC2CCCCC2)Cc2cccnc2F)c2ccccc21 [Compound 43, N1-cyclohexyl-N4-((2-fluoropyridin-3-yl)methyl)-N4-((1-(phenylsulfonyl)-1H-indol-3-yl)methyl)butane-1,4-diamine]",8.8,87,93.2,6.7,85.1,> 50,0,
CN(CCOCCN(Cc1cccnc1F)Cc1cn(S(=O)(=O)c2ccccc2)c2ccccc12)C1CCCC1 [Compound 104],9.2,123,88.2,13.2,79.8,> 50,0,
O=S(=O)(c1ccccc1)n1cc(CN(CCCCCNCc2cccnc2F)Cc2cccnc2F)c2ccccc21 [Compound 62],26.8,105,81.5,7.8,67.9,38.5,0,
"CN(CCCCCN(Cc1cccnc1F)Cc1cn(S(=O)(=O)c2ccccc2)c2ccccc12)C1CCCCC1 [Compound 52, N1-cyclohexyl-N5-((2-fluoropyridin-3-yl)methyl)-N1-methyl-N5-((1-(phenylsulfonyl)-1H-indol-3-yl)methyl)pentane-1,5-diamine]",9.1,145,91.7,5,88.1,15.8,0,
CN(CCCCCN(Cc1ccncc1)Cc1cn(S(=O)(=O)c2ccccc2)c2ccccc12)C1CCCCC1 [Compound 35],4.6,181,96.1,5.6,97.1,> 50,−21.5,
"CN(CCOCCN(Cc1cccnc1F)Cc1cn(S(=O)(=O)c2ccccc2)c2ccccc12)C1CCCC1 [Compound 105, N-(2-(2-(((2-fluoropyridin-3-yl)methyl)((1-(phenylsulfonyl)-1H-indol-3-yl)methyl)amino)ethoxy)ethyl)-N-methylcyclopentanamine]",7.5,162,91.2,11.5,74.3,> 50,0,
"CN(CCCCCN(Cc1cccc(F)n1)Cc1cn(S(=O)(=O)c2ccccc2)c2ccccc12)C1CCCCC1 [Compound 54, N1-cyclohexyl-N5-((6-fluoropyridin-2-yl)methyl)-N1-methyl-N5-((1-(phenylsulfonyl)-1H-indol-3-yl)methyl)pentane-1,5-diamine]",11.7,85,88.4,3,92.5,47.4,0,
O=S(=O)(c1ccccc1)n1cc(CN(CCNC2CCCCC2)Cc2ccncc2)c2ccccc21 [Compound 26],14.1,107,95.5,8.4,66,> 50,−17.2,
"CN(CCCCN(Cc1cccnc1F)Cc1cn(S(=O)(=O)c2ccccc2)c2ccccc12)C1CCCC1 [Compound 72, N′-cyclopentyl-N^4-((2-fluoropyridin-3-yl)methyl)-N′-methyl-N^4-((1-(phenylsulfonyl)-1H-indol-3-yl)methyl)butane-1,4-diamine]",9.7,208,89.8,8.1,92.1,> 50,3,
FC(F)(F)c1cccc(-n2cc(CN(CCCNC3CCCCC3)Cc3ccncc3)c3ccccc32)c1 [Compound 12],6.8,172,96.3,12.3,58.2,> 50,1.6,0.0142
O=S(=O)(c1ccccc1)n1cc(CN(Cc2ccnc(F)c2)CC2CCCN(C3CCCCC3)C2)c2ccccc21 (centres unmarked) [Compound 19],10.9,169,99,6.3,98.1,> 50,12.6,0.0099
CCCN(CCCCN(Cc1cccnc1F)Cc1cn(S(=O)(=O)c2ccccc2)c2ccccc12)C1CCCC1 [Compound 98],9.9,127,93.4,6.2,90.2,> 50,0,
